Source: US20050038022A1, “Method for treatment of cancer and compositions for use therein” (Unisearch Limited, priority 2001, published 2005)

Assays:
[1] = test system: Hep3-B; test: [3H]thymidine incorporation assay, Hep3-B; format: cell-based, human; details: 5 days
Experimental: (§1) HepG2, Hep3-B, Hep1-6, SKHEP-1, PLC/PRF/5, and HTC cells were obtained from European Collection of Cell Cultures (ECACC; U.K), Novikoff was obtained from Cancer Research Centre (DKFZ) Heidelberg, Germany. Cells were cultured in MEM or DMEM supplemented with 10% FBS, 50 units/ml penicillin, 50 units/ml streptomycin, 25 μg/ml amphotericin B (Gibco, Grand Island, N.Y.) and maintained subconfluent at 37° C. in humidified incubators containing 5% CO2. Albendazole (Sigma, Australian subsidiary) was dissolved in absolute ethanol at concentrations that were 1000-fold higher than the final medium concentration.

[2] = test system: SKHEP-1; test: [3H]thymidine incorporation assay, SKHEP-1; format: cell-based, human
Experimental: as §1

[3] = test system: HTC; test: [3H]thymidine incorporation assay, HTC; format: cell-based, rat; details: 5 days
Experimental: as §1

[4] = test system: SKHEP-1 cells; test: Cell cycle analysis by flow cytometry; format: cell-based, human; details: 3 days (FIG. 3)
Experimental: SKHEP-1 cells (5×10^4) were plated onto six-well tissue culture plates. Triplicate samples were treated with the indicated concentrations of albendazole (100, 250 and 1000 nM). The medium was changed everyday. After 72 h the relevant group of cells were collected, washed twice with phosphate buffer and treated with ribonuclease, Triton X-100 and propidium iodide (Sigma) based on the method described by Taylor [12]. The percentage of cells within the G1, S, and G2-M phases of the cell cycle were determined using a FACScan flow cytometer (Becton Dickinson FACSort) and Multifit LT cell cycle analysis software (Verity Software INC.)

[5] = test system: liver tumors (CRC or HCC); test: Albendazole in patients with advanced malignancy (phase 1 trial); format: in vivo, human
Experimental: The study was single-centre, open and non-controlled. Nine patients (8 male and 1 female) with either advanced CRC and hepatic metastasis or HCC were included in this study. One patient with neuroendocrine cancer and mesothelioma was also treated on a compassionate basis. The patients aged between 38-79 years were inoperable and had failed existing chemotherapy and also, except for two, had measurable and increasing tumor markers. The majority had also already failed hepatic artery chemotherapy. The diagnosis of CRC or HCC was made by ultrasound, CT or MRI scan, confirmed by histology and by determination of CEA or AFP levels for CRC or HCC respectively. Only patients with expected survival of more than one month were enrolled into the study. The study was approved by the Human Ethics Committee for Research of SESAHS. The protocol and the aim of the study was clearly explained to each patient and informed consent obtained. The duration of this study was four weeks but was to be stopped if leukopenia (WBC<[…]) or severe hepatocellular injury (ALT or AST 2× upper limit) developed. All patients received albendazole (400 mg scored tablets, Smith Kline Beecham, Australian subsidiary) 10 mg/kg orally in two or three divided doses for a planned duration of four weeks. This is the clinical dose of albendazole employed in the treatment of parasitic diseases. Patients were evaluated every three days by clinical examination together with full blood tests to monitor tumor markers, hematopoesis, liver and kidney function toxicity. A partial response (PR) was defined as a 50% or more decrease in the value of the markers. In addition there must be no new lesions or progression of any other lesions. Stable disease was defined as a decrease of less than 50%, or an increase of less than 25% in the value of tumor markers, while progressive disease (PD) was a 25% or more increase in the value of the tumor markers or the appearance of any new lesions.

[6] = test system: NIH:OVCAR-3; test: Cell count, ovarian cancer cell line; format: cell-based, human; details: OVCAR-3, 0.1 and 1 micromoles/L, evident from day 1
Experimental: Cells were treated with either the medium alone (control) or 0.1 and 1 micromoles/L of albendazole for 0, 1, 3, 6 or 10 days and the number of viable cells counted. […] This was evident from day 1 after the treatment

[7] = test system: PC3, LNCap and Du 145; test: Albendazole/ABS proliferation test, prostate cancer cells; format: cell-based, human; details: 3 human prostate cell lines
Experimental: In order to be able to test ABS, a proper solvent had to be found. […] Therefore to allow direct comparison between the 2 compounds, all subsequent experiments were run using 0.5% DMSO for both ABS and albendazole. In the cell lines examined, albendazole produced very similar results to what we had previously reported for the drug in liver cancer cells.
Both albendazole and ABS were tested side by side against various cell lines as follows: • Liver—HepGZ Hep3B, SKHEP-1 • Colorectal—170, LOVO, HT-29 • Prostate—PC3, LNCap, Du145 • Leukeamic—HL60
Cells were treated with various concentrations of each compound for a period of 5 days.

[8] = test system: ovarian cancer cells (NIH:OVCAR-3); test: DNA laddering (apoptosis), ovarian cancer cells; format: cell-based, human
Experimental: To find out the way albendazole works as an anticancer drug, a large variety of tests can be performed. One of the first is to see if albendazole induces apoptosis. This again is tested in several ways, one of the most common is to check for DNA laddering. […] This is the first time that the induction of apoptosis by albendazole has been reported.

[9] = test system: LOVO cells; test: DNA laddering (apoptosis), LOVO; format: cell-based, human; details: 1 μM, 16 hours
Excerpt: Similar results were also obtained with the human colorectal cell line LOVO.

[10] = test system: HepG2; test: Combination with methimazole (MT), HepG2 growth; format: cell-based; details: HepG2, albendazole alone 0.25, 0.1 and 0.01uM, 5 days
Experimental: (§2) The effect of inhibition of metabolism of albendazole on its antiproliferative activity was investigated using […] and the methimazole as an inhibitor of albendazole
(§3) 5000 cells each of HepG2 and S EP1 were plated into 24 wells plates and treated for 5 days with various concentrations of albendazole alone or together with MT.

[11] = test system: SKHEP-1; test: Combination with methimazole (MT), SKHEP-1 growth; format: cell-based; details: SKHEP-1, albendazole 0.25 μM, 5 days
Experimental: as §2, §3

## CCCSc1ccc2nc(NC(=O)OC)[nH]c2c1 [albendazole, methyl 5-propylthio-1H-benzimidazole-2-yl carbamate]
[1]; albendazole 10 nM
  [3H]thymidine incorporation: 105.7 ± 8.6 % control
[1]; albendazole 100 nM
  [3H]thymidine incorporation: 68.5 ± 5.7 % control
[1]; albendazole 500 nM
  [3H]thymidine incorporation: 22.6 ± 1.8 % control
[1]; albendazole 1000 nM
  [3H]thymidine incorporation: 9.3 ± 0.7 % control
[2]; Homo sapiens, SK-HEP1, 120 h, SKHEP-1, 1000 nM albendazole, 5 days
  inhibition at 1 µM: 99.4%
[2]; SKHEP-1, 1 day, concentrations of 250 nM and over (FIG. 1a)
  thymidine incorporation after 1 day exposure: profound inhibition of thymidine incorporation
[2]; SKHEP-1, albendazole 10 nM, 5 days
  [3H]thymidine incorporation: 89.6 ± 6.1 % control
[2]; SKHEP-1, albendazole 100 nM, 5 days
  [3H]thymidine incorporation: 63.7 ± 3.1 % control
[2]; SKHEP-1, albendazole 500 nM, 5 days
  [3H]thymidine incorporation: 4.5 ± 1.1 % control
[3]; albendazole 10 nM
  [3H]thymidine incorporation: 98.4 ± 7.5 % control
[3]; albendazole 100 nM
  [3H]thymidine incorporation: 86.0 ± 6.9 % control
[3]; albendazole 500 nM
  [3H]thymidine incorporation: 28.5 ± 2.2 % control
[3]; albendazole 1000 nM
  [3H]thymidine incorporation: 11.4 ± 1.3 % control
[4]; SKHEP-1, 250 nM
  effect on cell cycle distribution: accumulation of cells in the G0-G1 phase
[4]; SKHEP-1, 1000 nM
  effect on cell cycle distribution: arrest and accumulation of cells in the G2-M phase
[5]; 10 mg/kg/day oral, planned 28 days, nine patients (FIG. 6)
  disease outcome by tumor markers: stabilization of the disease in three, and progression of the disease in the other two patients
[5]; during the course of the trial, 10 mg/kg/day oral
  liver and kidney function tests: no significant changes
[5]; patient 1, HCC, 19 days treatment
  Comments (adverse event): neutropenia;
[5]; patient 2, CRC, 14 days treatment
  Comments (adverse event): neutropenia;
[5]; patient 8, CRC
  Comments (adverse event): neutropenia
[5]; patient 9, for the duration of the treatment (4 weeks)
  serum CEA levels: less than 10 μg/L
[5]; patient number 1 (HCC), treatment stopped on day 19
  disease outcome: stabilization of the disease
[5]; patient number 1, after stopping albendazole, almost certainly related to therapy
  fatal outcome: died of neutropaenic sepsis
[5]; patients 1, 2 and 8, drug had to be withdrawn
  neutropenia: significant neutropenia developed
[5]; patients 6, 7 and 8, 10 mg/kg/day oral
  serum CEA levels: stable CEA levels
[6]
  number of viable cells: profound reduction in cell number
[7]
  sensitivity of prostate cell lines in culture: quite sensitive
[8]
  DNA laddering (apoptosis): induction of DNA laddering
[9]
  DNA laddering (apoptosis): clear laddering
[10]
  growth inhibition: no growth inhibition
[11]
  growth inhibition: profoundly inhibited
